Results reported in US20250122207A1, “AP2 ASSOCIATED KINASE 1 INHIBITORS AND USES THEREOF” (Satellos Bioscience Inc., priority 2023, published 2025).
Read-outs that look alike come from different tables or passages of the source.

Tests used:
[1] = molecular target: T1, AAK1 (amino acids T27-A365) (Homo sapiens, UniProt Q2M2I8); test: AAK1 pSENs assay; format: biochemical
T1 construct: against AAK1 (amino acids T27-A365); 6His (N, cleaved yes)
Outline: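 Biotinylated, tag-free AAK1 T27-A365 expressed in E. coli was held at 20 nM in enzyme solution (HEPES pH 7.5, 10 mM MgCl2, DTT, EGTA, Brij35, BSA) and preincubated with compound for 15 min at 25 °C. The reaction was started with an equal volume of substrate solution containing 30 uM AQT0759 peptide and 70 uM ATP. IC50 determined.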

AAK1 = AAK1 (Homo sapiens, UniProt Q2M2I8); test: pAP2M1 cell-based assay (in-cell Western)
Description: pAP2M1 Cell-Based Assay (in-Cell Western):
The plate was read on Licor Odyssey CLx imaging system (LICOR) to acquire fluorescence intensity at 700 channel and 800 channel.
Data analysis: Fluorescence intensity at 700 channel served as internal standard and 800 channel were normalized with 700 channel.

[2] = molecular target: T2, BIKE (amino acids S38-E345) (K320A, K321A) (Homo sapiens, UniProt Q9NSY1, K320A/K321A); test: BIKE pSENs assay; format: biochemical
T2 construct: against BIKE (amino acids S38-E345) (K320A, K321A); 6His (N, cleaved yes)
Outline: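 E. coli-expressed, biotinylated, tag-free BIKE at 20 nM in HEPES pH 7.5 buffer with 10 mM MgCl2 preincubated with compound 15 min at 25° C. Reaction started with 30 uM AQT0759 sensor peptide and 40 uM ATP (concentrations before 1:1 mixing).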

[3] = molecular target: T3, GAK (amino acids Q25-N335) (Homo sapiens, UniProt O14976); test: GAK pSENs assay; format: biochemical
T3 construct: against GAK (amino acids Q25-N335); 6His (N, cleaved yes)
T3 sequence (O14976 25-335): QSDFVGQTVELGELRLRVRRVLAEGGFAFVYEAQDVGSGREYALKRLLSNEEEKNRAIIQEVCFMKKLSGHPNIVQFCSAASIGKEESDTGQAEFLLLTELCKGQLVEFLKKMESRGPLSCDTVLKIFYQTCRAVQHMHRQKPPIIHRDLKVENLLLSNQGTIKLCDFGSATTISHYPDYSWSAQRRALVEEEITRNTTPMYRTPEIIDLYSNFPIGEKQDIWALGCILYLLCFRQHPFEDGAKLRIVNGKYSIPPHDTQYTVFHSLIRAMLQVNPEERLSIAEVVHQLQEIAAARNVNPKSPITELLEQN
Method: The recombinant proteins were independently expressed in Escherichia coli BL21(DE3) cells cultured in Luria-Bertani (LB) medium until OD600 reached 0.6-0.8, then cooled to 15° C. and supplemented with 0.5 mM isopropyl 1-thio-D-galactopyranoside (IPTG) induce protein expression 16 h. Cells were harvested and resuspended in lysis buffer (50 mM HEPES pH 7.5, 500 mM NaCl, 5 mM imidazole, 5% glycerol, 0.5 mM Tris (2-carboxyethyl) phosphine (TCEP), cOmplete Protease Inhibitor Tablet (Roche)) and lysed by microfludics high pressure homogenizer (UH-06, Union-Biotech). Proteins were purified using […] chromatography (His FF column, Bestchrom) and eluted stepwise in binding buffer with 20-300 mM imidazole. Removal of the hexahistidine tag was performed at 4° C. overnight using recombinant TEV protease and reacted with BirA to obtain the corresponding biotinylated-AAK1, BIKE or GAK proteins. Further separated in the reverse Strep column (Strep-Tactin® XT, IBA). The Biotin elution sample was collected containing untagged biotinylated protein was then purified by Ion-exchange chromatography (Mono Q 10/100 GL, Cytiva) and Size-exclusion chromatography (HiLoad 16/600 Superdex 200 pg, Cytiva). The pure protein was stored in a storage buffer 50 mM HEPES (pH 7.5), 300 mM NaCl, 5% glycerol at −80° C. Protein were characterized by SDS-PAGE, LC-MS and aSEC.
This example describes one illustrative method for determining the IC50 of the compounds of the present invention against GAK (amino acids Q25-N335).

[4] = class symbols, read-out: AAK1 pSENs: EIC50
[5] = Hela cells co-transfected with AP2M1 and AAK1, 3 hr treatment, class symbols, read-out: AAK1 In-cell Western: IC50
[6] = class symbols, read-out: BIKE pSENs: IC50
[7] = class symbols, read-out: GAK pSENs:IC50

T1 sequence (Q2M2I8 27-365): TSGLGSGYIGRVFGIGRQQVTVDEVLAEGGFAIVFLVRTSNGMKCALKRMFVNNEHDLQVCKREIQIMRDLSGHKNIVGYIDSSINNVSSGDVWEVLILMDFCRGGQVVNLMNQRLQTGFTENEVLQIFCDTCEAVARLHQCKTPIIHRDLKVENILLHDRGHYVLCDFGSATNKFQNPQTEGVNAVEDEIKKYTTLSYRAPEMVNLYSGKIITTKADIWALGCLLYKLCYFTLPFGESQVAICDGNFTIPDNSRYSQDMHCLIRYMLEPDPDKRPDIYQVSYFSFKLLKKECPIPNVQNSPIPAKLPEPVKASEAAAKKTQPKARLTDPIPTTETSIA
AAK1, sequence (Q2M2I8 whole entry): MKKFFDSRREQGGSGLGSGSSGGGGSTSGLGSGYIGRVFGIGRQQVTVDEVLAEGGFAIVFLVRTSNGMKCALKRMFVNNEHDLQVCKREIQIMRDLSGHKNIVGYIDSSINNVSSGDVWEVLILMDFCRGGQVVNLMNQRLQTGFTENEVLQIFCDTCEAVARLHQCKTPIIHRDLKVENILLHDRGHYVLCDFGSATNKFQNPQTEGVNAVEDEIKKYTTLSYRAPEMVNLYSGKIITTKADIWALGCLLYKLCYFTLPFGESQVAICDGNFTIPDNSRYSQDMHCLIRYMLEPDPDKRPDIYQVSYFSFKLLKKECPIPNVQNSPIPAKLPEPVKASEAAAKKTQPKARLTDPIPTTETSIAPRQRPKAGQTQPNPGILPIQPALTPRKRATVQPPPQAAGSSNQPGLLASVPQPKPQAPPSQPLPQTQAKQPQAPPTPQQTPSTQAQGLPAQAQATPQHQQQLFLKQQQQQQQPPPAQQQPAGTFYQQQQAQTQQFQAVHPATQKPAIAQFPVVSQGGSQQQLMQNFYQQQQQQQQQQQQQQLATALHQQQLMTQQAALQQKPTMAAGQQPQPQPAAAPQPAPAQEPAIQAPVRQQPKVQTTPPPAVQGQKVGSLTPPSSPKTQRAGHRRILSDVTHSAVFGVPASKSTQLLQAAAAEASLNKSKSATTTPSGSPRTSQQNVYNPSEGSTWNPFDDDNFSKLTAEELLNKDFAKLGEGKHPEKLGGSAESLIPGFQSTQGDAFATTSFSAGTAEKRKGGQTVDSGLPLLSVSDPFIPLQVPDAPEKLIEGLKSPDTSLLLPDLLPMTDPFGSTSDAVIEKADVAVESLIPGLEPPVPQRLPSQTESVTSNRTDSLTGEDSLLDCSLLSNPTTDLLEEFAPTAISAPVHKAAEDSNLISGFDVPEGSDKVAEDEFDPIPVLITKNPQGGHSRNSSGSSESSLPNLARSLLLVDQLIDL
T2 sequence (Q9NSY1 38-345 K320A/K321A): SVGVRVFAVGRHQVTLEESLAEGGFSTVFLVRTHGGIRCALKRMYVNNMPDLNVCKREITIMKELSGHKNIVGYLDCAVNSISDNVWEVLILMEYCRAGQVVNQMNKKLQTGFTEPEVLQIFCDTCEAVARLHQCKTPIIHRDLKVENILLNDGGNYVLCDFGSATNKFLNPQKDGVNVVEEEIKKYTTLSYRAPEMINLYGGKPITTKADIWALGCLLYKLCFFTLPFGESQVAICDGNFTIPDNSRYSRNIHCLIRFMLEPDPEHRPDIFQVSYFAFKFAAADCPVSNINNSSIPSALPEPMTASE

| SMILES | IC50 [1, 4] | IC50 (AAK1; [5]) | IC50 [2, 6] | IC50 [3, 7] | IC50 [2] | IC50 [3] | IC50 [1] | IC50 (AAK1) |
| --- | --- | --- | --- | --- | --- | --- | --- | --- |
| CC(C)Oc1ncccc1-c1cnn2ccc(N3CCN(C(=O)OC4(C)CCNC4)CC3)nc12 (stereo not drawn) [Compound I-21-5, (3-methylpyrrolidin-3-yl)-4-[3-(2-isopropoxy-3-pyridyl)pyrazolo[1,5-a]pyrimidin-5-yl]piperazine-1-carboxylate] | 1 to 50 nM | 151 to 500 nM | 151 to 500 nM | 151 to 500 nM |  |  |  |  |
| CC(C)Oc1ncccc1-c1cnn2ccc(N3CCN(C(=O)O[C@]4(C)CCNC4)CC3)nc12 [Compound I-22, [(3R)-3-methylpyrrolidin-3-yl]4-[3-(2-isopropoxy-3-pyridyl)pyrazolo[1,5-a]pyrimidin-5-yl]piperazine-1-carboxylate] | 1 to 50 nM | 51 to 150 nM | 51 to 150 nM | 51 to 150 nM |  |  |  |  |
| CC(C)(C)OC(=O)N1CCC(N2C[C@H](OC(=O)N3CCN(c4ccn5ncc(-c6cccnc6OC6CC6)c5n4)CC3)CC2=O)CC1 [Compound I-31, (R)-1-(1-(tert-Butoxycarbonyl)piperidin-4-yl)-5-oxopyrrolidin-3-yl 4-(3-(2-cyclopropoxypyridin-3-yl)pyrazolo[1,5-a]pyrimidin-5-yl)piperazine-1-carboxylate] | 151 to 500 nM | > 1500 nM | 151 to 500 nM | 501 to 1500 nM |  |  |  |  |
| O=C1C[C@H](OC(=O)N2CCN(c3ccn4ncc(-c5cccnc5NC5CC5)c4n3)CC2)CN1 [Compound I-45, [(3S)-5-Oxopyrrolidin-3-yl]4-[3-[2-(cyclopropylamino)-3-pyridyl]pyrazolo[1,5-a]pyrimidin-5-yl]piperazine-1-carboxylate] | > 1500 nM | > 1500 nM | > 1500 nM | > 1500 nM |  |  |  |  |
| CN(CCNc1ccn2ncc(-c3cccnc3OC3CC3)c2n1)C(=O)O[C@]1(C)CCNC1 [Compound I-61, (R)-3-methylpyrrolidin-3-yl (2-((3-(2-cyclopropoxypyridin-3-yl)pyrazolo[1,5-a]pyrimidin-5-yl)amino)ethyl)(methyl)carbamate] | 1 to 50 nM | 501 to 1500 nM | 51 to 150 nM | 151 to 500 nM |  |  |  |  |
| COc1ncccc1-c1cnn2ccc(NCCN(C)C(=O)O[C@H]3CO[C@H]4OCC[C@H]43)nc12 [Compound I-70, (3R,3aS,6aR)-hexahydrofuro[2,3-b]furan-3-yl (2-((3-(2-methoxypyridin-3-yl)pyrazolo[1,5-a]pyrimidin-5-yl)amino)ethyl)(methyl)carbamate] | 1 to 50 nM | 501 to 1500 nM | 51 to 150 nM | 501 to 1500 nM |  |  |  |  |
| CN(CCNc1ccn2ncc(-c3cccnc3OC3CC3)c2n1)C(=O)O[C@H]1CO[C@H]2OCC[C@H]21 [Compound I-71, (3R,3aS,6aR)-hexahydrofuro[2,3-b]furan-3-yl (2-((3-(2-cyclopropoxypyridin-3-yl)pyrazolo[1,5-a]pyrimidin-5-yl)amino)ethyl)(methyl)carbamate] | 1 to 50 nM | 501 to 1500 nM | 501 to 1500 nM | 501 to 1500 nM |  |  |  |  |
| CN1C[C@H](OC(=O)N2CCN(c3ccn4ncc(-c5cccnc5OC5CC5)c4n3)CC2)CC1=O [Compound I-94] | 1 to 50 nM | 501 to 1500 nM |  |  | 151 to 500 nM | > 1500 nM |  |  |
| CN1C[C@@H](OC(=O)N2CCN(c3ccn4nccc4n3)CC2)CC1=O [Compound I-97, [(3S)-1-methyl-5-oxo-pyrrolidin-3-yl]-4-pyrazolo[1,5-a]pyrimidin-5-ylpiperazine-1-carboxylate] | > 1500 nM | > 1500 nM | > 1500 nM | > 1500 nM |  |  |  |  |
| CC(C)(C)OC(=O)N1CCN(c2ccn3ncc(Cl)c3n2)CC1 [Compound I-100, tert-butyl 4-(3-chloropyrazolo[1,5-a]pyrimidin-5-yl)piperazine-1-carboxylate] | 501 to 1500 nM | > 1500 nM | > 1500 nM | > 1500 nM |  |  |  |  |
| Brc1cnn2ccc(N3CCNCC3)nc12 [Compound I-103, 3-bromo-5-piperazin-1-yl-pyrazolo[1,5-a]pyrimidine] |  |  |  |  | > 1500 nM | > 1500 nM | > 1500 nM | > 1500 nM |
| Clc1cnn2ccc(N3CCNCC3)nc12 [Compound I-104, 3-chloro-5-piperazin-1-yl-pyrazolo[1,5-a]pyrimidine] | > 1500 nM | > 1500 nM | > 1500 nM | > 1500 nM |  |  |  |  |
| c1cc2nc(N3CCNCC3)ccn2n1 [Compound I-105, 5-piperazin-1-ylpyrazolo[1,5-a]pyrimidine] |  |  |  |  | > 1500 nM | > 1500 nM | > 1500 nM | > 1500 nM |

The next lines start with results.

| IC50 [1, 4] | IC50 (AAK1; [5]) | IC50 [2, 6] | IC50 [3, 7] | SMILES | IC50 [2] | IC50 [3] | IC50 [1] | IC50 (AAK1) |
| --- | --- | --- | --- | --- | --- | --- | --- | --- |
| 1 to 50 nM | 1 to 50 nM | 51 to 150 nM | 51 to 150 nM | C#CC1(OC(=O)N2CCN(c3ccn4ncc(-c5cccnc5OC5CC5)c4n3)CC2)CCNC1 (stereo not drawn) [Compound I-16-7, 3-ethynylpyrrolidin-3-yl-4-(3-(2-cyclopropoxypyridin-3-yl)pyrazolo[1,5-a]pyrimidin-5-yl)piperazine-1-carboxylate] |  |  |  |  |
| 1 to 50 nM | 501 to 1500 nM | 501 to 1500 nM | 501 to 1500 nM | O=C1C[C@H](OC(=O)N2CCN(c3ccn4ncc(-c5cccnc5OC5CC5)c4n3)CC2)CN1CCOCc1ccccc1 [Compound I-37, [(3S)-1-(2-benzyloxyethyl)-5-oxo-pyrrolidin-3-yl]-4-[3-[2-(cyclopropoxy)-3-pyridyl]pyrazolo[1,5-a]pyrimidin-5-yl]piperazine-1-carboxylate] |  |  |  |  |
| 1 to 50 nM | 151 to 500 nM | 501 to 1500 nM | 501 to 1500 nM | C[C@@]1(OC(=O)N2CCN(c3ccn4ncc(-c5cccnc5OC5CC5)c4n3)CC2)CCN(CC(N)=O)C1 [Compound I-51, (R)-1-(2-amino-2-oxoethyl)-3-(methylpyrrolidin-3-yl)-4-(3-(2-cyclopropoxypyridin-3-yl)pyrazolo[1,5-a]pyrimidin-5-yl)piperazine-1-carboxylate] |  |  |  |  |
| 1 to 50 nM | 151 to 500 nM | 51 to 150 nM | 501 to 1500 nM | COc1cnc(OC2CC2)c(-c2cnn3ccc(N4CCN(C(=O)O[C@H]5CC(=O)N(C)C5)CC4)nc23)c1 [Compound I-87] |  |  |  |  |
| 1 to 50 nM | > 1500 nM | 151 to 500 nM | 501 to 1500 nM | CN1C[C@@H](OC(=O)N2CCN(c3ccn4ncc(-c5cc(OC(F)(F)F)cnc5OC5CC5)c4n3)CC2)CC1=O [Compound I-88] |  |  |  |  |
| > 1500 nM | > 1500 nM | > 1500 nM | > 1500 nM | CN1C[C@@H](OC(=O)N2CCN(c3ccn4ncc(Cl)c4n3)CC2)CC1=O [Compound I-96, [(3S)-1-methyl-5-oxo-pyrrolidin-3-yl]-4-(3-chloropyrazolo[1,5-a]pyrimidin-5-yl)piperazine-1-carboxylate] |  |  |  |  |
| 151 to 500 nM | > 1500 nM | 501 to 1500 nM | > 1500 nM | CN1C[C@@H](OC(=O)N2CCN(c3ccn4ncc(-c5cccnc5O)c4n3)CC2)CC1=O [Compound I-98, [(3S)-1-methyl-5-oxo-pyrrolidin-3-yl]-4-[3-(2-hydroxy-3-pyridyl)pyrazolo[1,5-a]pyrimidin-5-yl]piperazine-1-carboxylate] |  |  |  |  |
| 1 to 50 nM | 501 to 1500 nM | 51 to 150 nM | > 1500 nM | CC(C)(C)OC(=O)N1CCN(c2ccn3ncc(-c4cccnc4O)c3n2)CC1 [Compound I-102, tert-butyl 4-[3-(2-hydroxy-3-pyridyl)pyrazolo[1,5-a]pyrimidin-5-yl]piperazine-1-carboxylate] |  |  |  |  |
